Measured values: BindingDB's records for doi:10.1016/0960-894X(96)00010-8 (1996)

Test: Inhibition of voltage sensitive calcium channel of embryonic chick dorsal root ganglion (DRG) cells

- IC50: 32 µM
Compound: COc1ccc(OC)c(-n2c(N)nc3cc(C(F)(F)F)ccc32)c1 [1-(2,5-Dimethoxy-phenyl)-5-trifluoromethyl-1H-benzoimidazol-2-ylamine]
